# Measured values as given in patent US20070212360A1, “Modulation of mitochondrial oxygen consumption for therapeutic purposes” (priority 2006, published 2007).
# Test system: RKO and RKOShHIF1α cells
# Assay: In vitro oxygen consumption of RKO and RKOShHIF1α cells
# Assay type: cell-based, human
# Conditions: 0.5% O2 24 h
# Procedure: FIG. 7. Inhibition of HIF1 and PDK1 increases oxygen consumption in vitro and in vivo. (a) Western blots of extracts from RKO and Su.86 cells exposed to normoxia (N) or hypoxia (H) (0.5% O2) for 24 h in the presence or absence of 2 ng/ml echinomycin probed for the indicated proteins. (b) Oxygen consumption rates of RKO and RKOShHIF1α cells (left) and Su.86 cells (right) after 24 h treatment with normoxia or hypoxia (0.5% O2) with or without 2 ng/ml echinomycin. Data are normalized to normoxic samples. (c) Relative oxygen consumption of RKO cells treated with hypoxia (0.5% O2) for 24 h in the presence of increasing concentrations of echinomycin. (d) Oxygen consumption rates of freshly explanted tumor tissue from RKO (n=16) and RKOShHIF1α (n=8) xenografts. (e) Oxygen consumption rates of RKO and RKOShHIF1 tumors from mice treated with 0.12 mg/kg echinomycin ip 24 h prior (n=8), or 50 mg/kg DCA ip 4 h prior (n=8). Data is normalized to PBS treated controls (n=8-16). (*) indicate a significant difference relative to control (p<0.05).
# Oxygen consumption measurements. Cells were trypsinized and suspended at 3×10^6 to 6×10^6 cells per ml in normoxic DMEM+10% FBS. Oxygen consumption was measured in a 0.5 ml volume using an Oxytherm electrode unit (Hansatech, Norfolk, UK). […] Oxygen consumption was measured as above in a 1 ml volume and normalized to tissue weight.
smiles,measurement,setting,value
CS[C@H]1SC[C@H]2C(=O)N(C)[C@@H](C(C)C)C(=O)OC[C@@H](NC(=O)c3cnc4ccccc4n3)C(=O)N[C@@H](C)C(=O)N(C)[C@@H]1C(=O)N(C)[C@@H](C(C)C)C(=O)OC[C@@H](NC(=O)c1cnc3ccccc3n1)C(=O)N[C@@H](C)C(=O)N2C [echinomycin],effect on HIF1-dependent reduction in oxygen consumption in parental cells,"RKO parental cells, increasing concentrations",dose-dependent block
same,effect on oxygen consumption in RKOShHIF1α cells,"RKOShHIF1α cells, 2 ng/ml",no effect
